Results from ChEMBL document CHEMBL1201862, “PubChem BioAssay data set” (2004).
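Following 48 hours of exposure in 96-well plates, responses at five concentrations were used to interpolate endpoints linearly. GI50 = concentration required for 50% inhibition of growth.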 Active and inactive are the calls of the source. No stated cut-off is given here; in the data, active = GI50 up to about 1.1 µM and inactive = higher.

How the values were obtained:
Assay in all cases: DTP human tumour cell line panel, 48 h
[1] = test system: MCF7
[2] = test system: A498
[3] = test system: COLO 205
[4] = test system: U-251
[5] = test system: UACC-257
[6] = test system: HCT-15
[7] = test system: A549
[8] = test system: ACHN
[9] = test system: KM12
[10] = test system: NCI-H23
[11] = test system: SW-620
[12] = test system: M14
[13] = test system: DU-145
[14] = test system: IGROV-1
[15] = test system: NCI-H460
[16] = test system: Malme-3M
[17] = test system: CCRF-CEM
[18] = test system: LOX IMVI
[19] = test system: OVCAR-5
[20] = test system: HOP-92
[21] = test system: NCI/ADR-RES
[22] = test system: BT-549
[23] = test system: SK-MEL-2
[24] = test system: K562
[25] = test system: EKVX
[26] = test system: MDA-MB-231
[27] = test system: MDA-N
[28] = test system: HT-29
[29] = test system: UACC-62
[30] = test system: SF-295
[31] = test system: SN12C
[32] = test system: SK-OV-3
[33] = test system: MOLT-4
[34] = test system: SF-539
[35] = test system: PC-3
[36] = test system: OVCAR-3
[37] = test system: SNB-19
[38] = test system: HCT-116
[39] = test system: HCC 2998
[40] = test system: SR
[41] = test system: RXF 393
[42] = test system: 786-0
[43] = test system: SK-MEL-28
[44] = test system: RPMI-8226
[45] = test system: NCI-H522
[46] = test system: HL-60
[47] = test system: NCI-H226
[48] = test system: UO-31
[49] = test system: SNB-75
[50] = test system: Hs-578T
[51] = test system: MDA-MB-435
[52] = test system: HOP-62
[53] = test system: SF-268
[54] = test system: CAKI-1
[55] = test system: SK-MEL-5
[56] = test system: OVCAR-8
[57] = test system: OVCAR-4
[58] = test system: TK-10

Which results are given for Oc1cc(-c2cccc3ccccc23)nc2ncccc12?
GI50 [1]: 6.93 nM (active); GI50 [2]: 20.6 nM (active); GI50 [3]: 15.4 nM (active); GI50 [4]: 21.1 nM (active); GI50 [5]: 1.52 nM (active); GI50 [6]: 6.27 nM; GI50 [7]: 48.1 nM (active); GI50 [8]: 32.5 nM (active); GI50 [9]: 12.2 nM (active); GI50 [10]: 35 nM (active); GI50 [11]: 34.4 nM (active); GI50 [12]: 15.9 nM (active); GI50 [13]: 41.8 nM (active); GI50 [14]: 61.1 nM (active); GI50 [15]: 44.3 nM (active); GI50 [16]: 2.25 nM (active); GI50 [17]: 24.5 nM (active); GI50 [18]: 33 nM (active); GI50 [19]: 47.2 nM (active); GI50 [20]: 434 nM (active); GI50 [21]: 20.6 nM (active); GI50 [22]: 938 nM (active); GI50 [23]: 17.8 nM (active); GI50 [24]: 5.25 nM (active); GI50 [25]: 94.8 nM (active); GI50 [26]: 172 nM (active); GI50 [27]: 1.19 nM (active); GI50 [28]: 17.3 nM (active); GI50 [29]: 10.2 nM (active); GI50 [30]: 38.8 nM (active); GI50 [31]: 90 nM (active); GI50 [32]: 17.6 nM (active); GI50 [33]: 50.6 nM (active); GI50 [34]: 19.7 nM (active); GI50 [35]: 18.2 nM (active); GI50 [36]: 4.57 nM (active); GI50 [37]: 27.4 nM (active); GI50 [38]: 26.1 nM (active); GI50 [39]: 74.5 nM (active); GI50 [40]: 5.65 nM (active); GI50 [41]: 15 nM (active); GI50 [42]: 32.1 nM (active); GI50 [43]: 54.6 nM (active); GI50 [44]: 24.3 nM (active); GI50 [45]: 20.1 nM (active); GI50 [46]: 4.01 nM (active); GI50 [47]: 33.9 nM (active); GI50 [48]: 40.2 nM (active); GI50 [49]: 6.84 nM (active); GI50 [50]: 52.4 nM (active); GI50 [51]: 0.865 nM (active); GI50 [52]: 962 nM (active); GI50 [53]: 20.1 nM (active); GI50 [54]: 24.2 nM (active); GI50 [55]: 2.1 nM (active); GI50 [56]: 50 nM (active); GI50 [57]: 54.2 nM (active)

Which results are given for CC(C)(C)OC(=O)NC(Cc1ccc(OCc2ccccc2)cn1)C(=O)O (centres undefined)?
GI50 [1]: > 100000 nM (inactive); GI50 [2]: > 100000 nM (inactive); GI50 [3]: > 100000 nM (inactive); GI50 [4]: > 100000 nM (inactive); GI50 [5]: > 100000 nM (inactive); GI50 [6]: > 100000 nM; GI50 [7]: > 100000 nM (inactive); GI50 [8]: > 100000 nM (inactive); GI50 [9]: > 100000 nM (inactive); GI50 [10]: > 100000 nM (inactive); GI50 [11]: > 100000 nM (inactive); GI50 [13]: > 100000 nM (inactive); GI50 [14]: > 100000 nM (inactive); GI50 [15]: > 100000 nM (inactive); GI50 [16]: > 100000 nM (inactive); GI50 [17]: > 10000 nM (inactive); GI50 [18]: > 100000 nM (inactive); GI50 [19]: > 100000 nM (inactive); GI50 [20]: > 100000 nM (inactive); GI50 [21]: > 100000 nM (inactive); GI50 [22]: > 100000 nM (inactive); GI50 [24]: > 100000 nM (inactive); GI50 [25]: > 100000 nM (inactive); GI50 [26]: > 100000 nM (inactive); GI50 [27]: > 100000 nM (inactive); GI50 [28]: > 100000 nM (inactive); GI50 [30]: > 100000 nM (inactive); GI50 [31]: > 100000 nM (inactive); GI50 [58]: > 100000 nM (inactive); GI50 [34]: > 100000 nM (inactive); GI50 [35]: > 100000 nM (inactive); GI50 [36]: > 100000 nM (inactive); GI50 [37]: > 100000 nM (inactive); GI50 [38]: > 100000 nM (inactive); GI50 [39]: > 100000 nM (inactive); GI50 [40]: > 100000 nM (inactive); GI50 [41]: > 100000 nM (inactive); GI50 [42]: > 100000 nM (inactive); GI50 [43]: > 100000 nM (inactive); GI50 [44]: > 100000 nM (inactive); GI50 [45]: 67000 nM (inactive); GI50 [46]: > 100000 nM (inactive); GI50 [47]: > 100000 nM (inactive); GI50 [48]: > 100000 nM (inactive); GI50 [50]: > 100000 nM (inactive); GI50 [51]: > 100000 nM (inactive); GI50 [52]: > 100000 nM (inactive); GI50 [53]: > 100000 nM (inactive); GI50 [54]: > 100000 nM (inactive); GI50 [55]: > 100000 nM (inactive); GI50 [56]: > 100000 nM (inactive); GI50 [57]: > 100000 nM (inactive)
